In patent publication US20230131535A1, “ARYLMETHYLENE AROMATIC COMPOUNDS AS Kv1.3 POTASSIUM SHAKER CHANNEL BLOCKERS” (D. E. Shaw Research, LLC, priority 2019, published 2023) one finds IC50 data, which are given here for 3 molecules.

Each structure is given as a SMILES string. Where two headings read alike, the source gives them in different places. Bounds are passed on as bounds.

One assay has as its target T1, hERG channel (Homo sapiens, UniProt Q12809).
T1 construct: expressed in transfected cells
As to the kind of experiment: hERG electrophysiology, automated whole-cell patch clamp (Patchliner). To be noted: CHO-K1 cells stably expressing hERG, whole cell current, tail current protocol, read-out: hERG_IC50. It is filed as cell-based. How it is done: Example 68. Evaluation of hERG Activities
This assay is used to evaluate the disclosed compounds' inhibition activities against the hERG channel.
CHO-K1 cells stably expressing hERG were grown in Ham's F-12 Medium with Glutamine containing 10% heat-inactivated FBS, 1% Penicillin/Streptomycin, Hygromycin (100 μg/ml) and G418 (100 μg/ml). Cells were grown in culture flasks at 37° C. in a 5% CO2-humidified incubator.
The cells were bathed in an extracellular solution containing 140 mM NaCl, 4 mM KCl, 2 mM CaCl2), 1 mM MgCl2, 5 mM Glucose, 10 mM HEPES; pH adjusted to 7.4 with NaOH; 295-305 mOsm. The internal solution contained 50 mM KCl, 10 mM NaCl, 60 mM KF, 20 mM EGTA, 10 mM HEPES; pH adjusted to 7.2 with KOH; 285 mOsm. All compounds were dissolved in DMSO at 30 mM. Compound stock solutions were freshly diluted with external solution to concentrations of 30 nM, 100 nM, 300 nM, 1 μM, 3 μM, 10 μM, 30 μM and 100 μM. The highest content of DMSO (0.3%) was present in 100 μM.
The voltage protocol (see Table 5) was designed to simulate voltage changes during a cardiac action potential with a 300 ms depolarization to +20 mV (analogous to the plateau phase of the cardiac action potential), a repolarization for 300 ms to −50 mV (inducing a tail current) and a final step to the holding potential of −80 mV. The pulse frequency was 0.3 Hz. Control (compound-free) and compound pulse trains for each compound concentration applied contained 70 pulses.
Whole cell current recordings and compound application were enabled by means of an automated patch clamp platform Patchliner (Nanion). EPC 10 patch clamp amplifier (HEKA) along with Patchmaster software (HEKA Elektronik Dr. Schulze GmbH) was used for data acquisition. Data were sampled at 10 kHz without filtering. Increasing compound concentrations were applied consecutively to the same cell without washouts in between.
AUC and PEAK values were obtained with Patchmaster (HEKA Elektronik Dr. Schulze GmbH). To determine IC50 the last single pulse in the pulse train corresponding to a given compound concentration was used. Obtained AUC and PEAK values in the presence of compound were normalized to control values in the absence of compound. Using Origin (OridinLab), IC50 was derived from data fit to Hill equation: Icompound/Icontrol=(100−A)/(1+([compound]/IC50)nH)+A, where IC50 is the concentration at which current inhibition is half-maximal, [compound] is the applied compound concentration, A is the fraction of current that is not blocked and nH is the Hill coefficient.

The next assay concerns the target T2, Kv1.3 potassium channel (Homo sapiens, UniProt P22001).
T2 construct: expressed in transfected cells
As to the kind of experiment: Kv1.3 potassium channel blocker activity, automated whole-cell patch clamp (Patchliner). Format: cell-based. The settings on record: CHO-K1 cells stably expressing Kv1.3, whole cell current, pulses -90 mV to +40 mV, read-out: Kv1.3_IC50. The procedure, abridged:
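CHO-K1 cells stably expressing Kv1.3, automated whole-cell patch clamp; 100 ms steps from −90 to +40 mV at 0.1 Hz, 20-pulse trains, P/4 leak subtraction. Cumulative 30 nM–100 μM on one cell, ≤10 s incubation; last-pulse peak/AUC normalised to control, IC50 from Hill fit.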

T1 sequence (Q12809 whole entry): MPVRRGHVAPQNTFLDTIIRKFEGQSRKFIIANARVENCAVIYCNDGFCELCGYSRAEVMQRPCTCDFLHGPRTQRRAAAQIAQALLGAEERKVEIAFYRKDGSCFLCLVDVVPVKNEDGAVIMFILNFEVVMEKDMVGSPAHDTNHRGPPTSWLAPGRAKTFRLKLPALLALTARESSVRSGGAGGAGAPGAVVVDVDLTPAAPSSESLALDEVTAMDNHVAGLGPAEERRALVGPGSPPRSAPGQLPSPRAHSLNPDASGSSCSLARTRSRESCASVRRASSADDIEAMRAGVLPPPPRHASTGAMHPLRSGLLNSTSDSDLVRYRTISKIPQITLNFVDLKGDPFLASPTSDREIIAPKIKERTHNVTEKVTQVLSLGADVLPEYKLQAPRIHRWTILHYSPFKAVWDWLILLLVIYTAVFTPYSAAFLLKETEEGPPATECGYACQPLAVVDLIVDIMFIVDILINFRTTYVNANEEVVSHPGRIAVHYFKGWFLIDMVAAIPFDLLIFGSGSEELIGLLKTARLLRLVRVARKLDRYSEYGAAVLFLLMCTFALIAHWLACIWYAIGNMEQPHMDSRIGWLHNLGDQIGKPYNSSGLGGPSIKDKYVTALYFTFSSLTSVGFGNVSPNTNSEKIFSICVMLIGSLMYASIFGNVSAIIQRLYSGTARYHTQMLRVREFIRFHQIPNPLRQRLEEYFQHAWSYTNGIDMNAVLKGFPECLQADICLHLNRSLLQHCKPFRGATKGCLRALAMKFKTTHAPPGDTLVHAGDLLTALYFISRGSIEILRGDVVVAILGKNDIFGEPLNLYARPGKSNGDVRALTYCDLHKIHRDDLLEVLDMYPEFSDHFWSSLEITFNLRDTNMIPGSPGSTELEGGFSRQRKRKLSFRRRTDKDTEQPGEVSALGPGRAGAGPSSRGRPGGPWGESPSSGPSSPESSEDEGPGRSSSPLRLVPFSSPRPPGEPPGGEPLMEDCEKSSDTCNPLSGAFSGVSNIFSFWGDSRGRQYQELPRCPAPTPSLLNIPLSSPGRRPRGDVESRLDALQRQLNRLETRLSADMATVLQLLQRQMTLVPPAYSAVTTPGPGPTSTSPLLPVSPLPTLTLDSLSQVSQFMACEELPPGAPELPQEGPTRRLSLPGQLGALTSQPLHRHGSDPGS
T2 sequence (P22001 whole entry): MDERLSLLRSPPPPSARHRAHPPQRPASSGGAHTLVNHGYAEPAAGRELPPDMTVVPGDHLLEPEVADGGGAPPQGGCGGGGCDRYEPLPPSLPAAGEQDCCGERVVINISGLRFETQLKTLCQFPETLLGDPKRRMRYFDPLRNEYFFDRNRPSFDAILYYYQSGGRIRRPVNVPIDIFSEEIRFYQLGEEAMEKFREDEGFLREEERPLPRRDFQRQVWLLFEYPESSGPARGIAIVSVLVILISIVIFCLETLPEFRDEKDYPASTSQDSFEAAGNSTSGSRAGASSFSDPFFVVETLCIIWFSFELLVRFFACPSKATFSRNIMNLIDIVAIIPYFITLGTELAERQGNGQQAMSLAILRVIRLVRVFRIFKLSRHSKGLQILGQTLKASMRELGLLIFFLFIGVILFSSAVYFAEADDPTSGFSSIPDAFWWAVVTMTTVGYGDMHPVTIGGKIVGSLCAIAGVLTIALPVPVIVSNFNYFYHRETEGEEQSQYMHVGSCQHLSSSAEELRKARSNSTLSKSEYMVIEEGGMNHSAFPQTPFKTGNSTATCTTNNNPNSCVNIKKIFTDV

With `Cc1cnccc1C(NC(=O)C1CNC1)c1c(O)ccc(Cl)c1Cl` (stereo not drawn) [Compound 9, N-[(2,3-dichloro-6-hydroxyphenyl)(3-methylpyridin-4-yl)methyl]azetidine-3-carboxamide], the IC50 at hERG channel (Table 6) was more than 30 µM; at Kv1.3 potassium channel (Table 6), less than 1 µM.

As for `C[C@H](NC(=O)C1CNC1)c1c(O)ccc(Cl)c1Br` [Compound 98, N-[(1S)-1-(2-bromo-3-chloro-6-hydroxyphenyl)ethyl]azetidine-3-carboxamide], the IC50 at hERG channel (Table 7) was more than 30 µM; on Kv1.3 potassium channel (Table 7), less than 1 µM.

`C[C@H](NC(=O)C1CN(CCO)C1)c1c(O)ccc(Cl)c1Cl` [Compound 89, N-[(1S)1-(2,3-dichloro-6-hydroxyphenyl)ethyl]-1-(2-hydroxyethyl) azetidine-3-carboxamide]: the IC50 at hERG channel (Table 7) is more than 30 µM; on Kv1.3 potassium channel (Table 7) it was less than 1 µM.
